The test system of test [1] is Streptomyces. As to the kind of experiment: Growth inhibition in Streptomyces 85E at 10 ug/disk by hyphae formation inhibition assay. Type of test: functional, organism-based.
The subject of test [2] is Streptomyces. As to the kind of experiment: Growth inhibition in Streptomyces 85E at 2.5 ug/disk by hyphae formation inhibition assay. It is filed as functional, organism-based.
Test [3] relates to Streptomyces. As to the kind of experiment: Growth inhibition in Streptomyces 85E assessed as clear zone of inhibition at 20 ug/disk by hyphae formation inhibition assay. It is filed as functional. As to conditions: read-out: IZ.
In test [4] the test system is Streptomyces. As to the kind of experiment: Growth inhibition in Streptomyces 85E at 5 ug/disk by hyphae formation inhibition assay. It is filed as functional, organism-based.
Test [5] relates to Streptomyces. As to the kind of experiment: Growth inhibition in Streptomyces 85E assessed as clear zone of inhibition at 10 ug/disk by hyphae formation inhibition assay. Type of test: functional. As to conditions: read-out: IZ.
For test [6], the system named is Streptomyces. The test can be described thus: Growth inhibition in Streptomyces 85E assessed as clear zone of inhibition at 5 ug/disk by hyphae formation inhibition assay. It is filed as functional. As to conditions: read-out: IZ.
The subject of test [7] is Streptomyces. As to the kind of experiment: Growth inhibition in Streptomyces 85E assessed as bald phenotype around disk at 2.5 ug/disk by hyphae formation inhibition assay. The note with it: read-out: IZ. Type of test: functional.
Test [8] deals with Streptomyces. The test can be described thus: Growth inhibition in Streptomyces 85E at 20 ug/disk by hyphae formation inhibition assay. Type of test: functional, organism-based.
For test [9], the system named is Streptomyces. As to the kind of experiment: Growth inhibition in Streptomyces 85E assessed as bald phenotype around disk at 5 ug/disk by hyphae formation inhibition assay. Type of test: functional. As to conditions: read-out: IZ.
For test [10], the system named is Streptomyces. The test can be described thus: Growth inhibition in Streptomyces 85E assessed as bald phenotype around disk at 20 ug/disk by hyphae formation inhibition assay. Type of test: functional. As to conditions: read-out: IZ.
Test [11] has as its system Streptomyces. The test can be described thus: Growth inhibition in Streptomyces 85E assessed as bald phenotype around disk at 10 ug/disk by hyphae formation inhibition assay. Type of test: functional. The note with it: read-out: IZ.

Experimental findings from ChEMBL document CHEMBL1158576, “Coumabiocins A-F, aminocoumarins from an organic extract of Streptomyces sp. L-4-4” (2010) are described below.

Molecules are shown by their SMILES. The source made the active and inactive calls. No cut-off for these calls is given here.

In the case of `CO[C@@H]1[C@@H](OC(N)=O)[C@@H](O)[C@H](Oc2ccc3c(O)c(NC(=O)c4ccc5c(c4)CC(O)C(C)(C)O5)c(=O)oc3c2C)OC1(C)C` (some centres not stated) [COUMABIOCIN D], the “inhibition zone (IZ)” value in [1], in [2] and in test [4] was “inactive” throughout. In addition, the zone of inhibition at 20 µg/disc in test [3] was 10 mm.
Consider `CO[C@@H]1[C@@H](OC(N)=O)[C@@H](O)[C@H](Oc2ccc3c(O)c(NC(=O)c4ccc5c(c4)CC(C(C)(C)O)O5)c(=O)oc3c2C)OC1(C)C` (some centres not stated) [COUMABIOCIN A], for which the “inhibition zone (IZ)” value in [1], in test [2] and in test [4] was “inactive” in each case. For the same molecule, the zone of inhibition at 20 µg/disc in test [3] was 13 mm.
On to `CO[C@@H]1[C@@H](OC(N)=O)[C@@H](O)[C@H](Oc2ccc3c(O)c(NC(=O)c4ccc5c(c4)CCC(C)(C)O5)c(=O)oc3c2C)OC1(C)C` [COUMABIOCIN C], for which, in test [5], the zone of inhibition at 10 µg/disc was determined as 10 mm. Moreover, the “inhibition zone (IZ)” value in test [2] and in test [4] was “inactive” throughout. Moreover, the zone of inhibition at 20 µg/disc in [3] is 15 mm.
Turning to `CO[C@@H]1[C@@H](OC(N)=O)[C@@H](O)[C@H](Oc2ccc3c(O)c(NC(=O)c4ccc(O)c(CC=C(C)C)c4)c(=O)oc3c2C)OC1(C)C` [NOVOBIOCIN], the zone of inhibition at 10 µg/disc in [5] stood at 18 mm. The zone of inhibition at 5 µg/disc in [6] was determined as 15 mm. Further, the zone of inhibition at 2.5 µg/disc in [7] stood at 18 mm. Also, the zone of inhibition at 20 µg/disc in test [3] stood at 20 mm.
In the case of `C=C(C)C(O)Cc1cc(C(=O)Nc2c(O)c3ccc(O)c(C)c3oc2=O)ccc1O` (configuration not stated), the “inhibition zone (IZ)” value in [8], in test [1], in test [2] and in test [4] was “inactive” in each case.
Take `CO[C@@H]1[C@@H](OC(N)=O)[C@@H](O)[C@H](Oc2ccc3c(O)c(NC(=O)c4ccc5c(c4)CC(C(C)C)O5)c(=O)oc3c2C)OC1(C)C` (some centres not stated) [COMABIOCIN B]: the zone of inhibition at 10 µg/disc in [5] stood at 12 mm. The zone of inhibition at 5 µg/disc in [9] was found to be 10 mm. Further, the “inhibition zone (IZ)” value in test [2] was “inactive”. Moreover, the zone of inhibition at 20 µg/disc in test [3] stood at 14 mm.
For `CO[C@@H]1[C@@H](O)[C@@H](OC(N)=O)[C@H](Oc2ccc3c(O)c(NC(=O)c4ccc(O)c(CC=C(C)C)c4)c(=O)oc3c2C)OC1(C)C` [ISONOVOBIOCIN], the zone of inhibition at 20 µg/disc in [10] came to 10 mm. Further, in test [11], the zone of inhibition at 10 µg/disc was determined as 9 mm. For the same molecule, the “inhibition zone (IZ)” value in test [2] and in test [4] was “inactive” in each case.
Take `C=C(C)C(O)Cc1cc(C(=O)Nc2c(O)c3ccc(O[C@@H]4OC(C)(C)[C@H](OC)[C@@H](OC(N)=O)[C@H]4O)c(C)c3oc2=O)ccc1O` (some centres not stated) [COUMABIOCIN E]: the “inhibition zone (IZ)” value in [1], in test [2] and in [4] was “inactive” each time. The zone of inhibition at 20 µg/disc in test [3] was determined as 11 mm.
